In article PMC4447944 (The Journal of Biological Chemistry, 2015):

How the values were obtained:
[1] = molecular target: hM3 (Homo sapiens, UniProt P20309); experiment: Calcium Mobilization Potentiation (Eurofins-CEREP); settings: @ 10 μM
[2] = molecular target: T1, hKIT-autoinhibited (Homo sapiens, UniProt P10721); experiment: KINOMEscan; format: binding
T1 construct: purchased DiscoverX (KINOMEscan platform)

[3] = molecular target: T2, hFGFR3(G697C) (Homo sapiens, UniProt P22607, G697C); experiment: KINOMEscan; format: binding
T2 construct: purchased DiscoverX

[4] = molecular target: T3, hZAK (Homo sapiens, UniProt Q9NYL2); experiment: KINOMEscan; format: binding
T3 construct: purchased DiscoverX

[5] = molecular target: T4, hARK5 (Homo sapiens, UniProt O60285); experiment: KINOMEscan; format: binding
T4 construct: purchased DiscoverX

[6] = molecular target: T5, hJAK1(JH2Dom.-pseudokinase) (Homo sapiens, UniProt P23458); experiment: KINOMEscan; format: binding
T5 construct: hJAK1(JH2Dom.-pseudokinase); purchased DiscoverX (KINOMEscan panel)

[7] = molecular target: T6, CYP3A4 (Homo sapiens, UniProt P08684); experiment: Cytochrome p450 inhibition (Eurofins-CEREP); format: in vitro ADME
T6 construct: Eurofins-CEREP

[8] = molecular target: T7, hLKB1 (Homo sapiens, UniProt Q15831); experiment: KINOMEscan; format: binding
T7 construct: purchased DiscoverX (KINOMEscan platform)

[9] = molecular target: T8, hROCK2 (Homo sapiens, UniProt O75116); experiment: KINOMEscan; format: binding
T8 construct: purchased DiscoverX (KINOMEscan platform)

[10] = molecular target: T9, hCDKL2 (Homo sapiens, UniProt Q92772); experiment: KINOMEscan; format: binding
T9 construct: purchased DiscoverX

[11] = molecular target: T10, hFER (Homo sapiens, UniProt P16591); experiment: KINOMEscan; format: binding
T10 construct: purchased DiscoverX

[12] = molecular target: T11, hEIF2AK1 (Homo sapiens, UniProt Q9BQI3); experiment: KINOMEscan; format: binding
T11 construct: purchased DiscoverX

[13] = molecular target: T12, hEPHA1 (Homo sapiens, UniProt P21709); experiment: KINOMEscan; format: binding
T12 construct: purchased DiscoverX

[14] = molecular target: T13, hYANK1 (Homo sapiens, UniProt Q8WU08); experiment: KINOMEscan; format: binding
T13 construct: purchased DiscoverX

[15] = molecular target: T14, hADCK3 (Homo sapiens, UniProt Q8NI60); experiment: KINOMEscan; format: binding
T14 construct: purchased DiscoverX

[16] = molecular target: T15, hHUNK (Homo sapiens, UniProt P57058); experiment: KINOMEscan; format: binding
T15 construct: purchased DiscoverX (KINOMEscan panel)

[17] = molecular target: T16, hIKK-alpha (Homo sapiens, UniProt O15111); experiment: KINOMEscan; format: binding
T16 construct: purchased DiscoverX (KINOMEscan panel)

[18] = molecular target: T17, hMAK (Homo sapiens, UniProt P20794); experiment: KINOMEscan; format: binding
T17 construct: purchased DiscoverX (KINOMEscan platform)

[19] = molecular target: T18, hMKNK2 (Homo sapiens, UniProt Q9HBH9); experiment: KINOMEscan; format: binding
T18 construct: purchased DiscoverX

[20] = molecular target: T19, hMEK1 (Homo sapiens, UniProt Q02750); experiment: KINOMEscan; format: binding
T19 construct: purchased DiscoverX

[21] = molecular target: T20, hTLK1 (Homo sapiens, UniProt Q9UKI8); experiment: KINOMEscan; format: binding
T20 construct: purchased DiscoverX

[22] = molecular target: T21, hCLK2 (Homo sapiens, UniProt P49760); experiment: KINOMEscan; format: binding
T21 construct: purchased DiscoverX

[23] = molecular target: T22, hRIPK4 (Homo sapiens, UniProt P57078); experiment: KINOMEscan; format: binding
T22 construct: purchased DiscoverX (KINOMEscan platform)

[24] = molecular target: T23, hQSK (Homo sapiens, UniProt Q9Y2K2); experiment: KINOMEscan; format: binding
T23 construct: purchased DiscoverX (KINOMEscan platform)

[25] = molecular target: T24, hMAP3K2 (Homo sapiens, UniProt Q9Y2U5); experiment: KINOMEscan; format: binding
T24 construct: purchased DiscoverX (KINOMEscan platform)

[26] = molecular target: T25, hEGFR(S752-I759del) (Homo sapiens, UniProt P00533, DEL752-759); experiment: KINOMEscan; format: binding
T25 construct: purchased DiscoverX

[27] = molecular target: T26, hCAMK1G (Homo sapiens, UniProt Q96NX5); experiment: KINOMEscan; format: binding
T26 construct: purchased DiscoverX

[28] = molecular target: T27, hMEK6 (Homo sapiens, UniProt P52564); experiment: KINOMEscan; format: binding
T27 construct: purchased DiscoverX

[29] = molecular target: T28, hROCK1 (Homo sapiens, UniProt Q13464); experiment: KINOMEscan; format: binding
T28 construct: purchased DiscoverX (KINOMEscan platform)

[30] = molecular target: SMYD2 (Homo sapiens, UniProt Q9NRG4); experiment: Thermal denaturation fluorometry (differential scanning fluorometry); format: binding; settings: 100 μM LLY-507
Description: SMYD2 protein unfolding was monitored on a 384-well Roche Lightcycler480 II^TM RT-PCR machine using SYPRO® Orange as a reporter dye (Invitrogen, S6651). Excitation and emission filters were set at 465 and 580 nm, respectively; the temperature was continuously ramped from 25 to 95 °C at a rate of 0.11°C/s. The reaction mixture (6 μl/well) contained 3.9 μM SMYD2 protein and 100 μM compound in 20 mM Tris, pH 8.0, 150 mM NaCl, 10% glycerol, 2 mM tris(2-carboxyethyl)phosphine (TCEP), and 1% DMSO buffer. Triplicates were run along with protein without compound as a negative control.

[31] = molecular target: T29, hTGFBR1 (Homo sapiens, UniProt P36897); experiment: KINOMEscan; format: binding
T29 construct: purchased DiscoverX

[32] = molecular target: hADRβ1 (Homo sapiens, UniProt P08588); experiment: cAMP Agonist (Eurofins-CEREP); settings: @ 10 μM
[33] = molecular target: T30, hMERTK (Homo sapiens, UniProt Q12866); experiment: KINOMEscan; format: binding
T30 construct: purchased DiscoverX

[34] = molecular target: T31, hEGFR(G719S) (Homo sapiens, UniProt P00533, G719S); experiment: KINOMEscan; format: binding
T31 construct: purchased DiscoverX

[35] = molecular target: T32, hLYN (Homo sapiens, UniProt P07948); experiment: KINOMEscan; format: binding
T32 construct: purchased DiscoverX (KINOMEscan platform)

[36] = molecular target: T33, hHIPK2 (Homo sapiens, UniProt Q9H2X6); experiment: KINOMEscan; format: binding
T33 construct: purchased DiscoverX

[37] = molecular target: T34, hCSNK2A1 (Homo sapiens, UniProt P68400); experiment: KINOMEscan; format: binding
T34 construct: purchased DiscoverX (KINOMEscan platform)

[38] = molecular target: T35, hTTK (Homo sapiens, UniProt P33981); experiment: KINOMEscan; format: binding
T35 construct: purchased DiscoverX

Sequence of SMYD2 (Q9NRG4 whole entry): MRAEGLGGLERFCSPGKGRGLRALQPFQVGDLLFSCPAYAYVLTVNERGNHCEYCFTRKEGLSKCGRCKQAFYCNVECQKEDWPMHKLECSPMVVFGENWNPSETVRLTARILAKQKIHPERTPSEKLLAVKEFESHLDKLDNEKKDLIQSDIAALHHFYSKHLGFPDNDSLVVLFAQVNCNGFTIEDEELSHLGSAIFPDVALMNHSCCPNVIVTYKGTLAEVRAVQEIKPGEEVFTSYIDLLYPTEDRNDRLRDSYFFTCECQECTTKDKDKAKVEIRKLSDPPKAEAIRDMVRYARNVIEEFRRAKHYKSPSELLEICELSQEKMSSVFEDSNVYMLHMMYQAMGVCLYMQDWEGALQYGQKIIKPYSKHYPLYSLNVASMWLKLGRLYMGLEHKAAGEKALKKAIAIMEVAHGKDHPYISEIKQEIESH
T4 sequence (O60285 whole entry): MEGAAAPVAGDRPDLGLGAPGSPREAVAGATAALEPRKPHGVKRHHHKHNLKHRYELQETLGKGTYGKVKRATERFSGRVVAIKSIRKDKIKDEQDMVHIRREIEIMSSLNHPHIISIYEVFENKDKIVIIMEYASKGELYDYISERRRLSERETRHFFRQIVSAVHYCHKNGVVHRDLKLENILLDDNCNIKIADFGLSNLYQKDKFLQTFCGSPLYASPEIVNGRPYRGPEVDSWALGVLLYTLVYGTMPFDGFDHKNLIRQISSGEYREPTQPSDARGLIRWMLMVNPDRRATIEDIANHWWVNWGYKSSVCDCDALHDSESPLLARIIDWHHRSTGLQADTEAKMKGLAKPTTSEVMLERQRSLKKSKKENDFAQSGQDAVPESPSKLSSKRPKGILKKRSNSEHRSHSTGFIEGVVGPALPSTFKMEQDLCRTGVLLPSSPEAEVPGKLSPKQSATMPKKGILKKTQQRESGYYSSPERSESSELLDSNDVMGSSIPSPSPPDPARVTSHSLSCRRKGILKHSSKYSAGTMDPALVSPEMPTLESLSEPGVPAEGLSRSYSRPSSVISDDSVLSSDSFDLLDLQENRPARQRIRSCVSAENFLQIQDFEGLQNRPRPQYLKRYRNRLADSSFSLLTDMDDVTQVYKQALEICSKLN
T24 sequence (Q9Y2U5 whole entry): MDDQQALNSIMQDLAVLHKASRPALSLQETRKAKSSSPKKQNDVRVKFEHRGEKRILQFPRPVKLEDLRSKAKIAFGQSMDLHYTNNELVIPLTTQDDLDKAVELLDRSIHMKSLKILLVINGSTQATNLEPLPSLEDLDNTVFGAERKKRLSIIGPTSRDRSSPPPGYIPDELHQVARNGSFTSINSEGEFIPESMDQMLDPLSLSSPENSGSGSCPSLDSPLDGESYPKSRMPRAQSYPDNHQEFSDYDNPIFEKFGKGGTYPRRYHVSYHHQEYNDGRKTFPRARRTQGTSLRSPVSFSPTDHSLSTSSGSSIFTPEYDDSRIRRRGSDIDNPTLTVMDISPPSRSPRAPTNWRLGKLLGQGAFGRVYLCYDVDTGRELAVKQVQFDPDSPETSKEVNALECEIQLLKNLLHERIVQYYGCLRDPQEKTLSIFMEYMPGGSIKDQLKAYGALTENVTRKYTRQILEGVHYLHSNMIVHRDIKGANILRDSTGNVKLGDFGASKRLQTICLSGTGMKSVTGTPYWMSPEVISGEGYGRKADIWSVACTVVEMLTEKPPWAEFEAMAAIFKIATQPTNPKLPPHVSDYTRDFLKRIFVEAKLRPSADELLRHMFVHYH
T12 sequence (P21709 26-976): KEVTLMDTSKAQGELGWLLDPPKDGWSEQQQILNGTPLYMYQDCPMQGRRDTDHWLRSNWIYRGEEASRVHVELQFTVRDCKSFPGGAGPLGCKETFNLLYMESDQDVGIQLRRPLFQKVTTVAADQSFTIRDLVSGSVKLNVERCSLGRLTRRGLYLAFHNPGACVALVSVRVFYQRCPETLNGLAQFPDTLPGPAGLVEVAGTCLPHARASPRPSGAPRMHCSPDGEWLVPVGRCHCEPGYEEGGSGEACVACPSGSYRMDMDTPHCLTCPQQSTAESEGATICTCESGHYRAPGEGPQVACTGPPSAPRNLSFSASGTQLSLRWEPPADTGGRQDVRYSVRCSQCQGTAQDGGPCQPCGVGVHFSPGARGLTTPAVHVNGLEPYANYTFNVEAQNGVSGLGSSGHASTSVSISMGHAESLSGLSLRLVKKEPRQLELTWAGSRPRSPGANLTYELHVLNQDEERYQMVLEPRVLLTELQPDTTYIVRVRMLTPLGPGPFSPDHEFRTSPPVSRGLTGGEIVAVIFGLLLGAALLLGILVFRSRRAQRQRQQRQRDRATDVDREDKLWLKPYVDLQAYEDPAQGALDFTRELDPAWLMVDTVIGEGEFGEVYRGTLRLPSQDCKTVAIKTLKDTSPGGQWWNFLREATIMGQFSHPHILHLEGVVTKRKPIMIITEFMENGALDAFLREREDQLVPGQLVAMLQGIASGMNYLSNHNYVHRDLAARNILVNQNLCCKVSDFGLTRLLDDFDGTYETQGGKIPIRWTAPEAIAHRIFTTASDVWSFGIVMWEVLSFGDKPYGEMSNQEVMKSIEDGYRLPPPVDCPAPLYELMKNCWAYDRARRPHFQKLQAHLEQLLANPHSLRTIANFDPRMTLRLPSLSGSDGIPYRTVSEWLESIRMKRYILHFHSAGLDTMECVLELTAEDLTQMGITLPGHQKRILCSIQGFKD
T15 sequence (P57058 whole entry): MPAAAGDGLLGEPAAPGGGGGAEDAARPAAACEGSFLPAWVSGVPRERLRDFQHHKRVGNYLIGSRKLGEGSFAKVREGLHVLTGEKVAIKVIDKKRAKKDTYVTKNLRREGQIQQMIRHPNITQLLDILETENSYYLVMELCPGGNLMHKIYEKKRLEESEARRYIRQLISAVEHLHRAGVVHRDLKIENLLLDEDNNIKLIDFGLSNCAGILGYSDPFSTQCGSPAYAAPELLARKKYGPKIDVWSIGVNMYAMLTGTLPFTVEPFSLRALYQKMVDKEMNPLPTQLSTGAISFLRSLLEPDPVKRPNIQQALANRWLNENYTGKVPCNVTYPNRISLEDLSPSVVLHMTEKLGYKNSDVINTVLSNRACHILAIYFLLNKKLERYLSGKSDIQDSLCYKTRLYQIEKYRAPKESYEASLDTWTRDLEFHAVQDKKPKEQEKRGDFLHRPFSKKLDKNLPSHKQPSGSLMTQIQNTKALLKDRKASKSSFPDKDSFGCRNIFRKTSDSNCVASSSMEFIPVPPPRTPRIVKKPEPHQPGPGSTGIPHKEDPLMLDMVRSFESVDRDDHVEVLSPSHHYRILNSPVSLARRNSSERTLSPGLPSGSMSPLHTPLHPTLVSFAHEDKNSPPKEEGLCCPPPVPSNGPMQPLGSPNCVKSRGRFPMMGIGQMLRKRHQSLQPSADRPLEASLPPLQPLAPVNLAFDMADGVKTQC
T30 sequence (Q12866 21-999): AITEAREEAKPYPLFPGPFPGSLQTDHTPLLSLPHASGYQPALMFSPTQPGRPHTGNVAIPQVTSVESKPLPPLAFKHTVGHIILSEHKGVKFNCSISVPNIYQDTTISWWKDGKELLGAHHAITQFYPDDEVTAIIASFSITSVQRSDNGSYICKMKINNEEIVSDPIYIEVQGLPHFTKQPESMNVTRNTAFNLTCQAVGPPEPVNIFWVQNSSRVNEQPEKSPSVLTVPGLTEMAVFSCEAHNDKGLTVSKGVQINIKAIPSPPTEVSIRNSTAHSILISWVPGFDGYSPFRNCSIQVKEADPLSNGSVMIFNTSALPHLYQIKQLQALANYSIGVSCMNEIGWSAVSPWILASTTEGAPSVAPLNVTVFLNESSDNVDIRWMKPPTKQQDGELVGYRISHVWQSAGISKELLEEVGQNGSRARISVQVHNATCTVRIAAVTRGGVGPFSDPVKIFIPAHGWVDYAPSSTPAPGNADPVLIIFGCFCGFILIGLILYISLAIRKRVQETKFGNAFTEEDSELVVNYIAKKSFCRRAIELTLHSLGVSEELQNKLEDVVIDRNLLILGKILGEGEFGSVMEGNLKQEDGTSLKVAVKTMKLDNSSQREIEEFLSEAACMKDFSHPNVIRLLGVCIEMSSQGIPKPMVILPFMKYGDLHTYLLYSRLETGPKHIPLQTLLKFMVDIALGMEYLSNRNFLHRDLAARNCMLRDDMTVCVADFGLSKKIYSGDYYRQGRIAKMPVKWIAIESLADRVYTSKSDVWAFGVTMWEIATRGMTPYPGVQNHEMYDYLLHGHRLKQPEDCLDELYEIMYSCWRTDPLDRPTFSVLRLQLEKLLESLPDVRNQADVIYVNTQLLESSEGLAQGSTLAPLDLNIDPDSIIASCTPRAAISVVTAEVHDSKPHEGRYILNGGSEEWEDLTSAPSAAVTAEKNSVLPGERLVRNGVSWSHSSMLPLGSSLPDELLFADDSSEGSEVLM
Sequence of hADRβ1 (P08588 whole entry): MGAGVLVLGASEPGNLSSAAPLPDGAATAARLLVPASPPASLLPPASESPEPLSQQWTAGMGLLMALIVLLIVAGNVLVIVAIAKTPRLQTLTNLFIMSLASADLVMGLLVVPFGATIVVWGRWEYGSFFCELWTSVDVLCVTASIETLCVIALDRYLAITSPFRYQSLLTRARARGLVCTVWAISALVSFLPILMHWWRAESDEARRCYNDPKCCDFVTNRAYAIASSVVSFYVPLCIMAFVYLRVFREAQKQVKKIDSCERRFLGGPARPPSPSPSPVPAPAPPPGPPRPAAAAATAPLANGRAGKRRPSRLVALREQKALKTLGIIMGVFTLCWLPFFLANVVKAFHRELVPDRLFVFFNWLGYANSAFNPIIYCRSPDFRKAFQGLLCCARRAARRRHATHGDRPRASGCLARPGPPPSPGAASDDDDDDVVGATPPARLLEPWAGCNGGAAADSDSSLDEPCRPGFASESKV

Which “% Effect, Potentiation” value [1] does the source give for `Cc1cn(CCN2CCN(c3ccccc3-c3cc(C#N)cc(C(=O)NCCCN4CCCC4)c3)CC2)c2ccccc12` [LLY-507, 3-cyano-5-{2-[4-[2-(3-methylindol-1-yl)ethyl]piperazin-1-yl]-phenyl}-N-[(3-pyrrolidin-1-yl)propyl]benzamide] here?
Its value is -18%.

And the IC50 [2]?
Its IC50 is greater than 20 µM.

And the IC50 [3]?
The IC50 was greater than 20 µM.

And the IC50 [4]?
Its IC50 is greater than 20 µM.

What about the IC50 [5] of the same molecule?
Its IC50 is greater than 20 µM.

And the IC50 [6]?
Its IC50 is greater than 20 µM.

What about the “% inhibition @ 10 μM” value [7] of the same molecule?
Its value is 69.1%.

And the IC50 [8]?
The IC50 was greater than 20 µM.

What about the IC50 [9] of the same molecule?
Its IC50 is greater than 20 µM.

What about the IC50 [10] of the same molecule?
The IC50 was greater than 20 µM.

What about the IC50 [11] of the same molecule?
The IC50 was greater than 20 µM.

And the IC50 [12]?
The IC50 was greater than 20 µM.

What about the IC50 [13] of the same molecule?
Its IC50 is greater than 20 µM.

And the IC50 [14]?
The IC50 was greater than 20 µM.

What about the IC50 [15] of the same molecule?
The IC50 was greater than 20 µM.

And the IC50 [16]?
The IC50 was greater than 20 µM.

And the IC50 [17]?
The IC50 was greater than 20 µM.

What about the IC50 [18] of the same molecule?
Its IC50 is greater than 20 µM.

And the IC50 [19]?
Its IC50 is greater than 20 µM.

And the IC50 [20]?
The IC50 was greater than 20 µM.

And the IC50 [21]?
Its IC50 is greater than 20 µM.

And the IC50 [22]?
The IC50 was greater than 20 µM.

What about the IC50 [23] of the same molecule?
The IC50 was greater than 20 µM.

What about the IC50 [24] of the same molecule?
Its IC50 is greater than 20 µM.

What about the IC50 [25] of the same molecule?
Its IC50 is greater than 20 µM.

What about the IC50 [26] of the same molecule?
Its IC50 is greater than 20 µM.

And the IC50 [27]?
Its IC50 is greater than 20 µM.

And the IC50 [28]?
Its IC50 is greater than 20 µM.

And the IC50 [29]?
Its IC50 is greater than 20 µM.

And the “increase in thermal stability of SMYD2” value [30]?
Its value is 5 °C.

What about the “Tm of SMYD2 in presence of compound” value ([30]; SMYD2 alone Tm = 49 °C) of the same molecule?
Its value is 54 °C.

And the IC50 [31]?
Its IC50 is greater than 20 µM.

And the “% Effect, Stimulation” value [32]?
The value was 52.7%.

And the IC50 [33]?
The IC50 was greater than 20 µM.

What about the IC50 [34] of the same molecule?
The IC50 was greater than 20 µM.

And the IC50 [35]?
The IC50 was greater than 20 µM.

And the IC50 [36]?
The IC50 was greater than 20 µM.

What about the IC50 [37] of the same molecule?
Its IC50 is greater than 20 µM.

And the IC50 [38]?
The IC50 was greater than 20 µM.
